This is an account of results in ChEMBL document CHEMBL1135037 (Bioorg Med Chem Lett, 2002).

Structures are written as SMILES. pIC50: −log10 of the molar value.

A short description of test [1]: Inhibition against PP1 at 100 uM.
The target of test [2] is T1, Serine-threonine protein phosphatase 2A regulatory subunit (Gallus gallus) (UniProt Q8AWE3).
T1 sequence (whole entry): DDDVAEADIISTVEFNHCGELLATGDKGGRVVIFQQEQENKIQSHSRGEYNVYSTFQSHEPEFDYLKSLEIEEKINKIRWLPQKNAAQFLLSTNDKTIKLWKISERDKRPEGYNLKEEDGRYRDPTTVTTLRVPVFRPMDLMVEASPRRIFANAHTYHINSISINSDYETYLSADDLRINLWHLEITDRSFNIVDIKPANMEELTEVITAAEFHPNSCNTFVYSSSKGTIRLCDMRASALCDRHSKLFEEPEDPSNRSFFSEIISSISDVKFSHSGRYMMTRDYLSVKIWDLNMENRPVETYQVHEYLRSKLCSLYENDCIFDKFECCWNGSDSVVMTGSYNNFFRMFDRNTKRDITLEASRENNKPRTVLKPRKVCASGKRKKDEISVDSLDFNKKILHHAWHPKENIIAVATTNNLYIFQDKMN
The test is described as follows: Inhibition against PP2A at 100 uM.

Test [3] can be described thus: Inhibitory concentration against PP1 was determined.
Test [4] concerns the target T2, Serine-threonine protein phosphatase 2A regulatory subunit (Gallus gallus, UniProt Q8AWE3).
T2 sequence (Q8AWE3 whole entry): T1 sequence (whole entry)
The test is described as follows: Concentration required to inhibit the action of protein phosphatase 2A.

Test [5] is described as follows: Selectivity was evaluated against Protein phosphatase 1.
A short description of test [6]: Selectivity was calculated against protein phosphatase 1.
The species entered for a further test is Homo sapiens. As to the kind of experiment: Selectivity against Protein phosphatase 2A.

The inhibition is the percentage by which the read-out fell short of the control. Broadly, the pIC50 is the IC50 on a negative log10 scale, so that one unit is a factor of ten. Low readings indicate a high IC50, high ones a low IC50. On to `O=C1OC(=O)C2C1[C@@H]1CC[C@H]2O1` (some centres not stated), for which the results for the inhibition in test [1] and in test [2] were 90% and 97%, respectively. In test [3], this compound had a pIC50 of 5.62.

As to `COC[C@@H]([C@H](O)[C@H](O)C(=O)NCC[C@H](C)c1nc(/C=C/C[C@@H]2O[C@]3(C[C@@H](O)[C@@H]2C)O[C@H]([C@H](C[C@H](O)[C@H](C)[C@H](O)[C@H](C)/C=C(C)/C(C)=C/C=C/C(C)=C\C#N)OC)[C@H](OP(=O)(O)O)C3(C)C)co1)N(C)C` [CALYCULIN A], the pIC50 in test [4] is 8.70.

Turning to `O=C1OC(=O)C2C1[C@@H]1C=C[C@H]2S1` (some centres not stated), the inhibition in test [1] and in test [2] was 0% in each case.

`O=C1NC(=O)C2C1[C@@H]1C=C[C@H]2S1` (some centres not stated) displayed a Selectivity in test [5] of 34. The inhibition was 87% in test [1] and 30% in test [2]. Besides, the negative logarithm of the IC50 (pIC50) in test [4] is 3.37; in test [3], 4.90.

With `COC(=O)C1C(C(=O)OC)[C@H]2C=C[C@@H]1O2` (some centres not stated), the values for the inhibition in test [1] and in test [2] were 46% and 6%, respectively. For the same compound, the negative-log IC50 (pIC50) in test [4] was less than 2.70; in test [3] it was 4.30. The Selectivity in test [6] was more than 40.

Regarding `C[C@@](O)(/C=C/[C@H]1CC=CC(=O)O1)[C@@H](C[C@@H](O)\C=C/C=C\C=C\CO)OP(=O)(O)O` [FOSTRIECIN SODIUM], the Selectivity in the test listed under Homo sapiens is more than 40000. Moreover, the pIC50 in test [4] was 8.47; in test [3] it was 3.89.

On to `COC(=O)C1C(C(=O)OC)[C@H]2C=C[C@@H]1S2` (some centres not stated), for which the inhibition in test [1] and in test [2] was 3% in each case.

With `C[C@@]12C(=O)OC(=O)[C@]1(C)[C@H]1CC[C@@H]2O1` [CANTHARIDIN], the negative logarithm of the IC50 (pIC50) in test [3] was 6.80.
